The record followed here is patent publication US6855710B2, “Substituted indolines with an inhibitory effect on various kinases and complexes of CDKs” (Boehringer Ingelheim Pharma KG, priority 1998, dated 2005).

Broadly, the melting point is the temperature, or range, at which the solid turns liquid. The compound `CCC(=O)N(CC(=O)N(C)C)c1ccc(N/C(=C2\C(=O)Nc3ccccc32)c2ccccc2)cc1` [Example 359, (Z)-3-{1-[4-(N-dimethylaminocarbonylmethyl-N-propionyl-amino)-phenylamino]-1-phenyl-methylidene}-2-indolinone] showed a melting point of 274 to 277 °C.

With `CC(=O)Nc1ccc(N/C(=C2\C(=O)Nc3ccc([N+](=O)[O-])cc32)c2ccccc2)cc1` [Example 93, (Z)-3-[1-(4-acetylamino-phenylamino)-1-phenyl-methylidene]-5-nitro-2-indolinone], the melting point fell in the range of 328 to 330 °C.

In the case of `O=C1Nc2ccccc2/C1=C(/Nc1ccc(NS(=O)(=O)CCN2CCOCC2)cc1)c1ccccc1` [Example 381, (Z)-3-{1-[4-(2-morpholinoethylsulphonylamino)-phenylamino]-1-phenyl-methylidene}-2-indolinone], the melting point lay in the range of 240 to 242 °C.

Consider `CC(C)CN(Cc1ccc(N/C(=C2\C(=O)Nc3ccc([N+](=O)[O-])cc32)c2ccccc2)cc1)CC(C)C` [Example 163, (Z)-3-[1-(4-Diisobutylaminomethyl-phenylamino)-1-phenyl-methylidene]-5-nitro-2-indolinone], for which the melting point was in the range of 204 to 207 °C.

`CC(=O)N(CCN1CCOCC1)c1ccc(N/C(=C2\C(=O)Nc3ccc([N+](=O)[O-])cc32)c2ccccc2)cc1` [Example 334, (Z)-3-{1-[4-(N-(2-morpholinoethyl)-N-acetyl-amino)-phenylamino]-1-phenyl-methylidene}-5-nitro-2-indolinone] showed a melting point of 229 °C.

Take `CC(=O)NC(c1ccc(N/C(=C2\C(=O)Nc3ccc([N+](=O)[O-])cc32)c2ccccc2)cc1)N(C)C(=O)OC(C)(C)C` (centres unmarked) [Example 145, (Z)-3-{1-[4-((N-tert.butoxycarbonyl-N-methyl-amino)-methylcarbonylaminomethyl)-phenylamino]-1-phenyl-methylidene}-5-nitro-2-indolinone]: the melting point is 225 to 227 °C (dec.).

Compound `CN(C)CCN(C(=O)c1ccccc1)c1ccc(N/C(=C2\C(=O)Nc3ccccc32)c2ccccc2)cc1` [Example 452, (Z)-3-[1-(4-(N-(2-dimethylaminoethyl)-N-benzoyl-amino)-phenylamino)-1-phenyl-methylidene]-2-indolinone] showed a melting point of 272 to 274 °C.

As for `COc1cccc(/C(Nc2ccc(CN(C)C)cc2)=C2/C(=O)Nc3ccc([N+](=O)[O-])cc32)c1` [Example 218, (Z)-3-[1-(4-dimethylaminomethyl-phenylamino)-1-(3-methoxyphenyl)-methylidene]-5-nitro-2-indolinone], the melting point lay in the range of 206 to 208 °C.

Turning to `CCCCNC(=O)Nc1ccc(N/C(=C2\C(=O)Nc3ccccc32)c2ccccc2)cc1` [Example 46, (Z)-3-[1-(4-butylaminocarbonylamino-phenylamino)-1-phenyl-methylidene]-2-indolinone], the melting point was in the range of 216 to 217 °C.

For `O=C(O)CNCCc1ccc(N/C(=C2\C(=O)Nc3ccc([N+](=O)[O-])cc32)c2ccccc2)cc1` [Example 258, (Z)-3-{1-[4-(2-carboxymethylamino-ethyl)-phenylamino]-1-phenyl-methylidene}-5-nitro-2-indolinone], the melting point is 242 to 243 °C (dec.).

Take `Cc1ccc(S(=O)(=O)N(CC(=O)N(C)C)c2ccc(N/C(=C3\C(=O)Nc4ccc([N+](=O)[O-])cc43)c3ccccc3)cc2)cc1` [Example 210, (Z)-3-{1-[4-(N-dimethylaminocarbonylmethyl-N-(p-tolylsulphonyl)-amino)-phenylamino]-1-phenyl-methylidene}-5-nitro-2-indolinone]: the melting point lay within 198 to 200 °C.

`CN(C)CCc1ccc(N/C(=C2\C(=O)Nc3ccccc32)c2ccccc2)cc1` [Example 268, (Z)-3-{1-[4-(2-dimethylamino-ethyl)-phenylamino]-1-phenyl-methylidene}-2-indolinone] displayed a melting point of 244 to 246 °C.

With `CCS(=O)(=O)N(CC(=O)NCCN(C)C)c1ccc(N/C(=C2\C(=O)Nc3ccccc32)c2ccccc2)cc1` [Example 301, (Z)-3-{1-[4-(N-(2-dimethylamino-ethylaminocarbonylmethyl)-N-ethylsulphonyl-amino)-phenylamino]-1-phenyl-methylidene}-2-indolinone], the melting point was 203 °C.

Take `CN(C)CCN(C)C(=O)CN(c1cccc(N/C(=C2\C(=O)Nc3ccccc32)c2ccccc2)c1)S(C)(=O)=O` [Example 323, (Z)-3-{1-[3-(N—((N-(2-dimethylaminoethyl)-N-methyl-amino)-carbonylmethyl)-N-methylsulphonyl-amino)-phenylamino]-1-phenyl-methylidene}-2-indolinone]: the melting point was in the range of 197 to 199 °C.

As to `CC(=O)NCc1ccc(N/C(=C2\C(=O)Nc3ccc([N+](=O)[O-])cc32)c2ccccc2)cc1` [Example 143, (Z)-3-[1-(4-acetylaminomethyl-phenylamino)-1-phenyl-methylidene]-5-nitro-2-indolinone], the melting point was in the range of 345 to 346 °C.

`O=C1Nc2ccc([N+](=O)[O-])cc2/C1=C(/Nc1ccc(CNC2CCCC2)cc1)c1ccccc1` [Example 276, (Z)-3-{1-[4-(cyclopentylaminomethyl)-phenylamino]-1-phenyl-methylidene}-5-nitro-2-indolinone]: the melting point amounted to 231 °C.

On to `CN(C)C(=O)CN(C(=O)c1ccccc1)c1ccc(N/C(=C2\C(=O)Nc3ccccc32)c2ccccc2)cc1` [Example 363, (Z)-3-{1-[4-(N-dimethylaminocarbonylmethyl-N-benzoyl-amino)-phenylamino]-1-phenyl-methylidene}-2-indolinone], for which the melting point is 284 to 287 °C.

`Cc1ccc(S(=O)(=O)N(CC(=O)N(C)C)c2ccc(N/C(=C3\C(=O)Nc4ccccc43)c3ccccc3)cc2)cc1` [Example 206, (Z)-3-{1-[4-(N-dimethylaminocarbonylmethyl-N-(p-tolylsulphonyl)-amino)-phenylamino]-1-phenyl-methylidene}-2-indolinone] yielded a melting point of 223 to 226 °C.

The compound `CC(=O)Nc1ccc(N/C(=C2\C(=O)Nc3ccccc32)c2ccccc2)cc1` [Example 31, (Z)-3-[1-(4-acetylamino-phenylamino]-1-phenyl-methylidene]-2-indolinone] showed a melting point of 236 to 238 °C.

Compound `COC(=O)CNC(=O)c1ccc(/C(Nc2ccc(CN3CCCCC3)cc2)=C2/C(=O)Nc3ccc([N+](=O)[O-])cc32)cc1` [Example 446, (Z)-3-[1-(4-piperidinomethyl-phenylamino)-1-(4-methoxycarbonylmethylaminocarbonyl-phenyl)-methylidene]-5-nitro-2-indolinone] displayed a melting point of 230 to 235 °C.

`CN(C)CC(=O)NCc1ccc(N/C(=C2\C(=O)Nc3ccccc32)c2ccccc2)cc1` [Example 74, (Z)-3-[1-(4-dimethylaminomethylcarbonylaminomethyl-phenylamino)-1-phenyl-methylidene}-2-indolinone] displayed a melting point of 200 to 205 °C.

`COc1ccc(N/C(=C2\C(=O)Nc3ccccc32)c2ccccc2)cc1` [Example 2, (Z)-3-[1-(4-methoxy-phenylamino)-1-phenyl-methylidene]-2-indolinone] gave a melting point of 267 to 270 °C.

As for `COC1CCN(Cc2ccc(N/C(=C3\C(=O)Nc4ccc([N+](=O)[O-])cc43)c3ccccc3)cc2)CC1` [Example 171, (Z)-3-{1-[4-(4-methoxypiperidinomethyl)-phenylamino]-1-phenyl-methylidene}-5-nitro-2-indolinone], the melting point lay within 204 to 206 °C.

On to `CN(C)CCCNS(=O)(=O)c1ccc(N/C(=C2\C(=O)Nc3ccc([N+](=O)[O-])cc32)c2ccccc2)cc1` [Example 403, (Z)-3-{1-[4-(3-dimethylamino-propylaminosulphonyl)-phenylamino]-1-phenyl-methylidene}-5-nitro-2-indolinone], for which the melting point was 268 to 269 °C.

In the case of `CCC(=O)N(CCN1CCOCC1)c1ccc(N/C(=C2\C(=O)Nc3ccc([N+](=O)[O-])cc32)c2ccccc2)cc1` [Example 335, (Z)-3-{1-[4-(N-(2-morpholinoethyl)-N-propionyl-amino)-phenylamino]-1-phenyl-methylidene}-5-nitro-2-indolinone], the melting point is 232 °C.

Consider `CN(C(=O)CN1CCOCC1)c1ccc(N/C(=C2\C(=O)Nc3ccc([N+](=O)[O-])cc32)c2ccccc2)cc1` [Example 102, (Z)-3-{1-[4-(N-morpholinomethylcarbonyl-N-methyl-amino)-phenylamino]-1-phenyl-methylidene}-5-nitro-2-indolinone], for which the melting point was 293 to 295 °C.

With `CC(=O)NCc1ccc(/C(Nc2ccc(CCNC(=O)OC(C)(C)C)cc2)=C2/C(=O)Nc3ccc([N+](=O)[O-])cc32)cc1` [Example 157, (Z)-3-{1-[4-(2-tert.butoxycarbonylamino-ethyl)-phenylamino]-1-(4-acetylaminomethyl-phenyl)-methylidene}-5-nitro-2-indolinone], the melting point is 94 °C (dec.).

For `CN(C(=O)CCN)c1ccc(N/C(=C2\C(=O)Nc3ccccc32)c2ccccc2)cc1.Cl`, the melting point fell in the range of 97 to 99 °C.

In turn, `CCOC(=O)C1CCN(CCc2ccc(N/C(=C3\C(=O)Nc4ccc([N+](=O)[O-])cc43)c3ccccc3)cc2)CC1` [Example 262, (Z)-3-{1-[4-(2-(4-ethoxycarbonyl-piperidino)-ethyl)-phenylamino]-1-phenyl-methylidene}-5-nitro-2-indolinone] yielded a melting point of 208 to 213 °C.

For the compound `CN(C)Cc1ccc(N/C(=C2\C(=O)Nc3ccc([N+](=O)[O-])cc32)c2ccc(Cl)cc2)cc1` [Example 222, (Z)-3-[1-(4-dimethylaminomethyl-phenylamino)-1-(4-chlorophenyl)-methylidene]-5-nitro-2-indolinone], the melting point was found to be 311 °C.

For `NS(=O)(=O)c1ccc(N/C(=C2\C(=O)Nc3ccccc32)c2ccccc2)cc1` [Example 396, (Z)-3-{1-[4-(aminosulphonyl)-phenylamino]-1-phenyl-methylidene}-2-indolinone], the melting point amounted to 254 °C.

On to `CC(C)C(=O)N(CCN1CCOCC1)c1ccc(N/C(=C2\C(=O)Nc3ccccc32)c2ccccc2)cc1` [Example 350, (Z)-3-{1-[4-(N-(2-morpholinoethyl)-N-isopropylcarbonyl-amino)-phenylamino]-1-phenyl-methylidene}-2-indolinone], for which the melting point stood at 239 °C.
